Experimental data published in patent US12077503B2, “Substituted cyclic amides and their use as herbicides” (FMC CORPORATION, priority 2015, dated 2024).

Columns and labels:
Assay type in all cases: in vivo
Kochia (Kochia scoparia) [1] = test: Test A preemergence; conditions: Bassia scoparia, pre-emergence, 240 h, 0 to 100 scale where 0 is no effect and 100 is complete control, read-out: Kochia plant response rating
How it was run: (§1)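 Visual injury, scored on a 0–100 scale relative to untreated controls, was recorded about 10 d after application. Treatments were a preemergence soil spray over planted seeds or a postemergence spray on plants at the one- to two-leaf stage, 2 to 10 cm tall, all in loam soil–sand blend in the greenhouse.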

[2] = tested on: ryegrass, Italian (Italian ryegrass, Lolium multiflorum); test: Test A preemergence; conditions: Lolium multiflorum, pre-emergence, 240 h, 0 to 100 scale where 0 is no effect and 100 is complete control, read-out: Ryegrass, Italian plant response rating
How it was run: as §1

[3] = tested on: pigweed (Amaranthus retroflexus); test: Test A preemergence; conditions: Amaranthus retroflexus, pre-emergence, 240 h, 0 to 100 scale where 0 is no effect and 100 is complete control, read-out: Pigweed plant response rating
[4] = tested on: giant foxtail (Setaria faberii); test: Test A preemergence; conditions: Setaria faberi, pre-emergence, 240 h, 0 to 100 scale where 0 is no effect and 100 is complete control, read-out: Foxtail, Giant plant response rating
How it was run: as §1

[5] = tested on: ragweed (common ragweed, Ambrosia elatior); test: Test A preemergence; conditions: Ambrosia artemisiifolia, pre-emergence, 240 h, 0 to 100 scale where 0 is no effect and 100 is complete control, read-out: Ragweed plant response rating
How it was run: as §1

[6] = tested on: barnyardgrass (Echinochloa crus-galli); test: Test A preemergence; conditions: Echinochloa crus-galli, pre-emergence, 240 h, 0 to 100 scale where 0 is no effect and 100 is complete control, read-out: Barnyardgrass plant response rating
How it was run: as §1

Kochia (Kochia scoparia) [7] = test: Test A postemergence; conditions: Bassia scoparia, post-emergence, 240 h
How it was run: as §1

[8] = tested on: ryegrass, Italian (Italian ryegrass, Lolium multiflorum); test: Test A postemergence; conditions: Lolium multiflorum, post-emergence, 240 h
How it was run: as §1

[9] = tested on: pigweed (Amaranthus retroflexus); test: Test A postemergence; conditions: Amaranthus retroflexus, post-emergence, 240 h
How it was run: as §1

[10] = tested on: giant foxtail (Setaria faberii); test: Test A postemergence; conditions: Setaria faberi, post-emergence, 240 h
How it was run: as §1

[11] = tested on: blackgrass (Alopecurus myosuroides); test: Test A postemergence; conditions: Alopecurus myosuroides, post-emergence, 240 h
How it was run: as §1

[12] = tested on: ragweed (common ragweed, Ambrosia elatior); test: Test A postemergence; conditions: Ambrosia artemisiifolia, post-emergence, 240 h
How it was run: as §1

corn (Zea mays) = test: Test A postemergence; conditions: Zea mays, post-emergence, 240 h
How it was run: as §1

[13] = tested on: barnyardgrass (Echinochloa crus-galli); test: Test A postemergence; conditions: Echinochloa crus-galli, post-emergence, 240 h
How it was run: as §1

[14] = tested on: Galium (catchweed bedstraw, Galium aparine); test: Test A postemergence; conditions: Galium, post-emergence, 240 h
How it was run: as §1

[15] = tested on: wheat (Triticum aestivum); test: Test A postemergence; conditions: Triticum aestivum, post-emergence, 240 h
How it was run: as §1

rice (Oryra sativa) = test: Test B flooded paddy test; conditions: Oryza sativa, 250 g ai/ha, Flood; 0 to 100 scale where 0 is no effect and 100 is complete control; read-out: Rice plant response rating
How it was run: (§2)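 Response scored visually against untreated controls, 0 = no effect and 100 = complete control, 13–15 d after treatment in the greenhouse. Compounds added to paddy water held 3 cm above soil surface. Treatment given at 2-leaf stage.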

[16] = tested on: ducksalad (Heteranthera limosa); test: Test B flooded paddy test; conditions: Heteranthera limosa, 250 g ai/ha, Flood; 0 to 100 scale where 0 is no effect and 100 is complete control; read-out: Ducksalad plant response rating
How it was run: as §2

[17] = tested on: sedge, umbrella (small-flower umbrella sedge, Cyperus difformis); test: Test B flooded paddy test; conditions: Cyperus difformis, 250 g ai/ha, Flood; 0 to 100 scale where 0 is no effect and 100 is complete control; read-out: Sedge, Umbrella plant response rating
How it was run: as §2

[18] = tested on: barnyardgrass (Echinochloa crus-galli); test: Test B flooded paddy test; conditions: Echinochloa crus-galli, 250 g ai/ha, Flood; 0 to 100 scale where 0 is no effect and 100 is complete control; read-out: Barnyardgrass plant response rating
How it was run: as §2

[19] = 125 g ai/ha, preemergence, approx. 10 d

CN1C[C@H](c2csc3c2CCOC3)[C@@H](C(=O)Nc2ccccc2S(C)(=O)=O)C1=O [Compound 1078]
pest or weed control at 31 g/ha (Kochia (Kochia scoparia) [1]; 31 g ai/ha, Preemergence): 0% | pest or weed control at 125 g/ha (Kochia (Kochia scoparia) [1]; [19]): 0% | pest or weed control at 31 g/ha ([2]; 31 g ai/ha, Preemergence): 0% | pest or weed control at 125 g/ha [2, 19]: 0% | pest or weed control at 31 g/ha ([3]; 31 g ai/ha, Preemergence): 0% | pest or weed control at 125 g/ha [3, 19]: 0% | pest or weed control at 31 g/ha ([4]; 31 g ai/ha, Preemergence): 0% | pest or weed control at 125 g/ha [4, 19]: 0% | pest or weed control at 31 g/ha ([5]; 31 g ai/ha, Preemergence): 0% | pest or weed control at 125 g/ha [5, 19]: 0% | pest or weed control at 31 g/ha ([6]; 31 g ai/ha, Preemergence): 0% | pest or weed control at 125 g/ha [6, 19]: 0% | pest or weed control at 125 g/ha (Kochia (Kochia scoparia) [7]; 125 g ai/ha, postemergence, visual injury on 0 to 100 scale (0 no effect, 100 complete control), approx. 10 d, read-out: Kochia plant response rating): 0% | pest or weed control at 31 g/ha (Kochia (Kochia scoparia) [7]; Postemergence, 31 g ai/ha, visual injury after approx. 10 d, 0 to 100 scale, 0 no effect, 100 complete control, read-out: Plant response rating, Kochia): 0% | pest or weed control at 125 g/ha ([8]; 125 g ai/ha, postemergence, visual injury on 0 to 100 scale (0 no effect, 100 complete control), approx. 10 d, read-out: Ryegrass, Italian plant response rating): 0% | pest or weed control at 31 g/ha ([8]; Postemergence, 31 g ai/ha, visual injury after approx. 10 d, 0 to 100 scale, 0 no effect, 100 complete control, read-out: Plant response rating, Ryegrass, Italian): 0% | pest or weed control at 125 g/ha ([9]; 125 g ai/ha, postemergence, visual injury on 0 to 100 scale (0 no effect, 100 complete control), approx. 10 d, read-out: Pigweed plant response rating): 0% | pest or weed control at 31 g/ha ([9]; Postemergence, 31 g ai/ha, visual injury after approx. 10 d, 0 to 100 scale, 0 no effect, 100 complete control, read-out: Plant response rating, Pigweed): 0% | pest or weed control at 125 g/ha ([10]; 125 g ai/ha, postemergence, visual injury on 0 to 100 scale (0 no effect, 100 complete control), approx. 10 d, read-out: Foxtail, Giant plant response rating): 0% | pest or weed control at 31 g/ha ([10]; Postemergence, 31 g ai/ha, visual injury after approx. 10 d, 0 to 100 scale, 0 no effect, 100 complete control, read-out: Plant response rating, Foxtail, Giant): 0% | pest or weed control at 125 g/ha ([11]; 125 g ai/ha, postemergence, visual injury on 0 to 100 scale (0 no effect, 100 complete control), approx. 10 d, read-out: Blackgrass plant response rating): 0% | pest or weed control at 31 g/ha ([11]; Postemergence, 31 g ai/ha, visual injury after approx. 10 d, 0 to 100 scale, 0 no effect, 100 complete control, read-out: Plant response rating, Blackgrass): 0% | pest or weed control at 125 g/ha ([12]; 125 g ai/ha, postemergence, visual injury on 0 to 100 scale (0 no effect, 100 complete control), approx. 10 d, read-out: Ragweed plant response rating): 0% | pest or weed control at 31 g/ha ([12]; Postemergence, 31 g ai/ha, visual injury after approx. 10 d, 0 to 100 scale, 0 no effect, 100 complete control, read-out: Plant response rating, Ragweed): 0% | plant injury at 125 g/ha (corn (Zea mays); 125 g ai/ha, postemergence, visual injury on 0 to 100 scale (0 no effect, 100 complete control), approx. 10 d, read-out: Corn plant response rating): 0% | Corn plant response rating (crop injury, 0 = no effect, 100 = complete kill) at 31 g/ha (corn (Zea mays); Postemergence, 31 g ai/ha, visual injury after approx. 10 d, 0 to 100 scale, 0 no effect, 100 complete control): 0% | pest or weed control at 125 g/ha ([13]; 125 g ai/ha, postemergence, visual injury on 0 to 100 scale (0 no effect, 100 complete control), approx. 10 d, read-out: Barnyardgrass plant response rating): 10% | pest or weed control at 31 g/ha ([13]; Postemergence, 31 g ai/ha, visual injury after approx. 10 d, 0 to 100 scale, 0 no effect, 100 complete control, read-out: Plant response rating, Barnyardgrass): 0% | pest or weed control at 125 g/ha ([14]; 125 g ai/ha, postemergence, visual injury on 0 to 100 scale (0 no effect, 100 complete control), approx. 10 d, read-out: Galium plant response rating): 0% | pest or weed control at 31 g/ha ([14]; Postemergence, 31 g ai/ha, visual injury after approx. 10 d, 0 to 100 scale, 0 no effect, 100 complete control, read-out: Plant response rating, Galium): 0% | plant injury at 125 g/ha ([15]; 125 g ai/ha, postemergence, visual injury on 0 to 100 scale (0 no effect, 100 complete control), approx. 10 d, read-out: Wheat plant response rating): 0% | plant injury at 31 g/ha ([15]; Postemergence, 31 g ai/ha, visual injury after approx. 10 d, 0 to 100 scale, 0 no effect, 100 complete control, read-out: Plant response rating, Wheat): 0% | pest or weed control at 250 g/ha (rice (Oryra sativa)): 0% | pest or weed control at 250 g/ha [16]: 0% | pest or weed control at 250 g/ha [17]: 0% | pest or weed control at 250 g/ha [18]: 30%
